Test results from the supplement of paper PMC10307832.

Key:
Experiment in all cases: relative viability (nuclei count vs DMSO), 5 days (fraction); higher = more cells survive
Pictilisib + Trametinib = compound: CS(=O)(=O)N1CCN(Cc2cc3nc(-c4cccc5[nH]ncc45)nc(N4CCOCC4)c3s2)CC1 [Pictilisib] + CC(=O)Nc1cccc(-n2c(=O)n(C3CC3)c(=O)c3c(Nc4ccc(I)cc4F)n(C)c(=O)c(C)c32)c1 [Trametinib] (partner 0.02 µM)
Summary of the method: (§1)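 Values are medians from duplicate plates. Each reflects relative viability, defined as the nuclei count of treated wells over that of vehicle wells. Lung cancer cell lines in 1536-well plates were pin-tool dosed one day after seeding with one drug alone or with a fixed anchor-drug dose plus five library-drug doses (not always all listed) in √10 steps, then fixed, stained and imaged at 4× after 5 days.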

Pictilisib + Lapatinib = compound: CS(=O)(=O)N1CCN(Cc2cc3nc(-c4cccc5[nH]ncc45)nc(N4CCOCC4)c3s2)CC1 [Pictilisib] + CS(=O)(=O)CCNCc1ccc(-c2ccc3ncnc(Nc4ccc(OCc5cccc(F)c5)c(Cl)c4)c3c2)o1 [Lapatinib] (partner 2 µM)
Summary of the method: as §1

Pictilisib + Pemetrexed = compound: CS(=O)(=O)N1CCN(Cc2cc3nc(-c4cccc5[nH]ncc45)nc(N4CCOCC4)c3s2)CC1 [Pictilisib] + Nc1nc2[nH]cc(CCc3ccc(C(=O)N[C@@H](CCC(=O)O)C(=O)O)cc3)c2c(=O)[nH]1 [Pemetrexed] (partner 0.2 µM)
Summary of the method: as §1

MK-2206 + OSI-027 = compound: NC1(c2ccc(-c3nc4ccn5c(=O)[nH]nc5c4cc3-c3ccccc3)cc2)CCC1 [MK-2206] + COc1cccc2cc(-c3nc([C@H]4CC[C@H](C(=O)O)CC4)n4ncnc(N)c34)[nH]c12 [OSI-027] (partner 0.5 µM)
Summary of the method: as §1

MK-2206 + Phenformin = compound: NC1(c2ccc(-c3nc4ccn5c(=O)[nH]nc5c4cc3-c3ccccc3)cc2)CCC1 [MK-2206] + N=C(N)NC(=N)NCCc1ccccc1 [Phenformin] (partner 250 µM)
Summary of the method: as §1

Row | Cell Line | relative viability (Pictilisib + Trametinib; first compound 0.02 µM) | relative viability (Pictilisib + Trametinib; first compound 0.06325 µM) | relative viability (Pictilisib + Trametinib; first compound 0.6325 µM) | relative viability (Pictilisib + Trametinib; first compound 2 µM) | relative viability (Pictilisib + Lapatinib; first compound 0.02 µM) | relative viability (Pictilisib + Lapatinib; first compound 0.06325 µM) | relative viability (Pictilisib + Lapatinib; first compound 0.6325 µM) | relative viability (Pictilisib + Lapatinib; first compound 2 µM) | relative viability (Pictilisib + Pemetrexed; first compound 0.02 µM) | relative viability (Pictilisib + Pemetrexed; first compound 0.06325 µM) | relative viability (Pictilisib + Pemetrexed; first compound 0.6325 µM) | relative viability (Pictilisib + Pemetrexed; first compound 2 µM) | relative viability (MK-2206 + OSI-027; first compound 0.01 µM) | relative viability (MK-2206 + OSI-027; first compound 0.03162 µM) | relative viability (MK-2206 + OSI-027; first compound 0.3162 µM) | relative viability (MK-2206 + OSI-027; first compound 1 µM) | relative viability (MK-2206 + Phenformin; first compound 0.01 µM) | relative viability (MK-2206 + Phenformin; first compound 0.03162 µM) | relative viability (MK-2206 + Phenformin; first compound 0.3162 µM) | relative viability (MK-2206 + Phenformin; first compound 1 µM)
1 | HCC-15 | 0.359 | 0.334 | 0.237 | 0.178 | 0.936 | 0.91 | 0.789 | 0.692 | 0.224 | 0.224 | 0.224 | 0.202 | 0.663 | 0.675 | 0.436 | 0.404 | 0.469 | 0.519 | 0.442 | 0.288
2 | EPLC-272H | 0.275 | 0.278 | 0.212 | 0.126 | 1.03 | 1.09 | 0.658 | 0.513 | 0.297 | 0.342 | 0.231 | 0.185 | 0.31 | 0.259 | 0.26 | 0.266 | 0.323 | 0.285 | 0.29 | 0.336
3 | NCI-H2009 | 0.36 | 0.277 | 0.167 | 0.116 | 1.06 | 0.932 | 0.858 | 0.844 | 1.04 | 1.12 | 1.17 | 0.875 | 0.63 | 0.582 | 0.497 | 0.399 | 0.474 | 0.464 | 0.436 | 0.4
4 | NCI-H661 | 0.532 | 0.589 | 0.469 | 0.356 | 0.461 | 0.444 | 0.447 | 0.27 | 0.956 | 0.982 | 0.9 | 0.711 | 0.729 | 0.659 | 0.563 | 0.584 | 0.252 | 0.289 | 0.257 | 0.255
5 | NCI-H520 | 0.57 | 0.64 | 0.215 | 0.14 | 0.834 | 0.864 | 0.365 | 0.164 | 0.613 | 0.624 | 0.268 | 0.148 | 0.243 | 0.233 | 0.17 | 0.238 | 0.551 | 0.523 | 0.212 | 0.254
6 | NCI-H2405 | 0.719 | 0.515 | 0.355 | 0.254 | 1.2 | 1.05 | 0.801 | 0.505 | 1.3 | 1.01 | 0.778 | 0.416 | 0.661 | 0.641 | 0.56 | 0.452 | 0.392 | 0.402 | 0.36 | 0.321
7 | LCLC-97TM1 | 0.204 | 0.226 | 0.142 | 0.0739 | 0.672 | 0.93 | 0.768 | 0.446 | 0.155 | 0.169 | 0.169 | 0.147 | 0.698 | 0.498 | 0.249 | 0.361 | 0.431 | 0.48 | 0.315 | 0.384
8 | NCI-H2228 | 0.391 | 0.519 | 0.199 | 0.148 | 1.18 | 1.12 | 0.586 | 0.339 | 0.316 | 0.252 | 0.334 | 0.119 | 0.69 | 0.446 | 0.271 | 0.214 | 0.332 | 0.326 | 0.214 | 0.219
9 | LK-2 | 0.738 | 0.654 | 0.558 | 0.257 | 0.947 | 1 | 0.618 | 0.405 | 0.247 | 0.281 | 0.116 | 0.14 | 0.179 | 0.199 | 0.181 | 0.151 | 0.302 | 0.543 | 0.315 | 0.174
10 | PC-3 [JPC-3] | 0.727 | 0.658 | 0.586 | 0.433 | 0.439 | 0.461 | 0.426 | 0.319 | 1.22 | 1.24 | 0.872 | 0.579 | 0.825 | 0.749 | 0.6 | 0.641 | 0.48 | 0.486 | 0.475 | 0.466
11 | NCI-H596 | 0.795 | 0.764 | 0.515 | 0.327 | 1.1 | 1.02 | 0.602 | 0.367 | 0.472 | 0.508 | 0.509 | 0.318 | 0.706 | 0.887 | 0.591 | 0.41 | 0.738 | 0.956 | 0.651 | 0.481
12 | NCI-H460 | 0.157 | 0.215 | 0.0736 | 0.0266 | 1.08 | 1.02 | 0.548 | 0.118 | 0.0594 | 0.0727 | 0.0616 | 0.0599 | 0.642 | 0.521 | 0.321 | 0.455 | 0.489 | 0.613 | 0.521 | 0.45
13 | NCI-H647 | 0.554 | 0.464 | 0.307 | 0.126 | 1.15 | 1.11 | 0.833 | 0.429 | 0.172 | 0.175 | 0.143 | 0.141 | 0.573 | 0.584 | 0.469 | 0.641 | 0.479 | 0.542 | 0.38 | 0.542
14 | NCI-H838 | 0.431 | 0.453 | 0.374 | 0.246 | 1.15 | 0.875 | 0.728 | 0.387 | 0.24 | 0.251 | 0.314 | 0.184 | 0.484 | 0.397 | 0.327 | 0.366 | 0.554 | 0.722 | 0.517 | 0.447
15 | PC-14 | 0.749 | 0.761 | 0.537 | 0.196 | 0.34 | 0.302 | 0.236 | 0.113 | 0.137 | 0.133 | 0.136 | 0.0862 | 0.746 | 0.911 | 0.597 | 0.661 | 0.493 | 0.663 | 0.584 | 0.525
16 | NCI-H358 | 0.132 | 0.141 | 0.122 | 0.104 | 0.49 | 0.503 | 0.311 | 0.29 | 0.172 | 0.165 | 0.161 | 0.133 | 0.819 | 0.765 | 0.531 | 0.487 | 0.338 | 0.352 | 0.328 | 0.412
